Data from patent publication US20160115540A1, “PRODRUGS AND DRUGS” (Biogen MA Inc., priority 2013, published 2016).
“Also recorded” adds a separate entry of the source. Counter-ions that a name gives are not always drawn.

What was measured:
spleen = test: Transcriptional profiling on Affymetrix GeneChips, single dose, naïve mice: spleen; format: in vivo, C57BL/6 mice; details: for Number of differentially expressed genes identified: Spleen: Naïve, Single Dose; for FC Pdia4 (protein disulfide isomerase associated 4): probe 1416497_PM_at; for FC Aox1 (aldehyde oxidase 1): probe 1419435_PM_at; for FC Osgin1 (oxidative stress induced growth inhibitor 1): probe 1424022_PM_at; for FC Kirrel (kin of IRRE like (Drosophila)): probe 1434797_PM_at; for FC 9130221J17Rik (RIKEN cDNA 9130221J17 gene): probe 1443159_PM_at; for Number of genes, DMF Only / MMF Only: Spleen
Experimental: Treated mice were sacrificed at 2, 7, or 12 hours. Tissues (liver, spleen, kidney, jejunum, cortex, hippocampus, striatum and whole blood) were collected and analyzed by transcriptional profiling on mouse Affymetrix GeneChips.
Tissues (liver, spleen, kidney, jejunum, cortex, hippocampus, striatum and whole blood) were collected and analyzed by transcriptional profiling on mouse Affymetrix GeneChips.
Animals were exposed to CO2 and whole blood collected via cardiac puncture. Two 100 μl aliquots of whole blood were collected in 1.5 mL microcentrifuge tubes and snap frozen in liquid nitrogen. Peripheral (liver, spleen, kidney and jejunum) and CNS brain (cerebellum, hippocampus, striatum and cortex) tissues were harvested and snap frozen in liquid nitrogen, with special care taken to collect tissues of similar size and from the same location. All samples were stored at −80° C. until RNA extraction was conducted.
For RNA preparation, frozen tissues were placed in 2 mL RNAse-free 96-well blocks with 1.5 mL QIAzol Lysis Reagent (QIAgen) and a 3.2 mm stainless steel bead (BioSpec Products, Bartlesville, Okla.). Tissues were disrupted for four cycles of 45 seconds in a Mini-Beadbeater (Biospec Products). RNA was extracted in chloroform and the aqueous phase was mixed with an equal volume of 70% ethanol. Extracted RNA was applied to RNeasy 96 plates and purified by the spin method according to the manufacturer's protocol (RNeasy 96 Universal Tissue Protocol, QIAgen, Hilden Germany).
Automated sample amplifications and biotin labelings were carried out using the NuGEN Ovation RNA Amplification system V2 (Cat #3100), Ovation WB reagent (Cat #1300) and Encore Biotin module (Cat #4200) (NuGEN Technologies, Inc, San Carlos, Calif.) according to manufacturer's recommendations using an Arrayplex automated liquid handler (Beckman Coulter, Indianapolis, Ind.). Two micrograms of biotin labeled sscDNA probe were hybridized to Affymetrix GeneChip Affymetrix HT_MG-430_PM plate arrays with modified conditions as described in Allaire et al. Washing and staining of the hybridized arrays were completed as described in the GeneChip Expression analysis technical manual for HT plate arrays using the Genechip® Array Station (Affymetrix, Santa Clara, Calif.) with modifications as described in Allaire et al. The processed GeneChip® plate arrays were scanned using GeneTitan scanner (Affymetrix, Santa Clara, Calif.).
Affymetrix scans were subject to quality control (QC) measures. These tests included a visual inspection of the distribution of raw signal intensities and an assessment of RNA degradation, relative log expression (RLE), and normalized unsealed standard error (NUSE). All sample scans that passed these QC metrics were included in the analysis.
All CEL files were subjected to GC-content-based Robust Multi-array Average (GCRMA) normalization (version 2.20.0) (Irizarry R A, et al. Nucleic Acids Res 2003; 31:e15; Li C, et al. Genome Biol 2001; 2:[…]0032). Expression levels were log (base 2) transformed.
All calculations and analyses were carried out using R (version 2.11.1) and Bioconductor computational tools (Gentleman R. Springer Science+Business Media 2005).

NK cells = test: Flow cytometry of NK cell surface markers (MFI) in naïve mice; format: in vivo, C57Bl/6 mice; details: 12 hr after 100 mpk PO
Source text: Protein expression is quantified by mean fluorescent intensity (MFI).
12-hours post-dose, mice were sacrificed and blood, spleen, and inguinal lymph node were collected for analysis by flow cytometry.
Transcriptional differences in NK cell markers were confirmed at the protein level by flow cytometry. […] Protein expression was quantified by mean fluorescent intensity (MFI). […] 12-hours post-dose, mice were sacrificed and blood, spleen, and inguinal lymph node (iLN) were collected for analysis by flow cytometry.

[1] = 100 mpk, vs Vehicle, 2 h after last dosing
[2] = 100 mpk, vs Vehicle, 7 h after last dosing
[3] = 100 mpk, vs Vehicle, 12 h after last dosing

## COC(=O)/C=C/C(=O)OC [DMF, dimethyl fumarate]
spleen; 100 mpk DMF-vs-100 mpk MMF, 2 h after last dosing
  Number of differentially expressed genes identified: Spleen: 0
spleen; 100 mpk DMF-vs-100 mpk MMF, 7 h after last dosing
  Number of differentially expressed genes identified: Spleen: 0
spleen; 100 mpk DMF-vs-100 mpk MMF, 12 h after last dosing
  Number of differentially expressed genes identified: Spleen: 0
spleen; [1]
  Number of differentially expressed genes identified: Spleen: 13
spleen; [2]
  Number of differentially expressed genes identified: Spleen: 2
spleen; [3]
  Number of differentially expressed genes identified: Spleen: 0
spleen; SPLEEN, 100DMF-vs-100MMF, 2 h
  genes in differential expression gene list: None
spleen; SPLEEN, 100DMF-vs-100MMF, 7 h
  genes in differential expression gene list: None
spleen; SPLEEN, 100DMF-vs-100MMF, 12 h
  genes in differential expression gene list: None
spleen; SPLEEN, 100DMF-vs-Veh, 2 h
  FC Pdia4 (protein disulfide isomerase associated 4): −1.60
  FC Aox1 (aldehyde oxidase 1): 2.61
  FC Osgin1 (oxidative stress induced growth inhibitor 1): 1.78
  FC Kirrel (kin of IRRE like (Drosophila)): −1.54
  FC 9130221J17Rik (RIKEN cDNA 9130221J17 gene): 1.52
spleen; SPLEEN, 100DMF-vs-Veh, 2 h, probe 1419942_PM_at
  FC Srxn1 (sulfiredoxin 1 homolog (S. cerevisiae)): 2.16
spleen; SPLEEN, 100DMF-vs-Veh, 2 h, probe 1421529_PM_a_at
  FC Txnrd1 (thioredoxin reductase 1): 1.55
spleen; SPLEEN, 100DMF-vs-Veh, 2 h, probe 1424296_PM_at
  FC Gclc (glutamate-cysteine ligase, catalytic subunit): 1.76
spleen; SPLEEN, 100DMF-vs-Veh, 2 h, probe 1424486_PM_a_at
  FC Txnrd1 (thioredoxin reductase 1): 2.41
spleen; SPLEEN, 100DMF-vs-Veh, 2 h, probe 1424487_PM_x_at
  FC Txnrd1 (thioredoxin reductase 1): 1.73
spleen; SPLEEN, 100DMF-vs-Veh, 2 h, probe 1426875_PM_s_at
  FC Srxn1 (sulfiredoxin 1 homolog (S. cerevisiae)): 2.02
spleen; SPLEEN, 100DMF-vs-Veh, 2 h, probe 1448916_PM_at
  FC Mafg (v-maf musculoaponeurotic fibrosarcoma oncogene family, protein G (avian)): 1.58
spleen; SPLEEN, 100DMF-vs-Veh, 2 h, probe 1451680_PM_at
  FC Srxn1 (sulfiredoxin 1 homolog (S. cerevisiae)): 1.53
spleen; SPLEEN, 100DMF-vs-Veh, 7 h, probe 1419942_PM_at
  FC Srxn1 (sulfiredoxin 1 homolog (S. cerevisiae)): 1.67
spleen; SPLEEN, 100DMF-vs-Veh, 7 h, probe 1426875_PM_s_at
  FC Srxn1 (sulfiredoxin 1 homolog (S. cerevisiae)): 1.50
spleen
  Number of genes, DMF Only / MMF Only: 2
spleen; spleen, 2 hr
  Aox1 (probe set 1419435_PM_at) differential expression: 2.61
  Gclc (probe set 1424296_PM_at) differential expression: 1.76
  Kirrel (probe set 1434797_PM_at) differential expression: −1.54
  Mafg (probe set 1448916_PM_at) differential expression: 1.58
  Osgin1 (probe set 1424022_PM_at) differential expression: 1.78
  Pdia4 (probe set 1416497_PM_at) differential expression: −1.60
  Srxn1 (probe set 1419942_PM_at) differential expression: 2.16
  Txnrd1 (probe set 1424486_PM_a_at) differential expression: 2.41
spleen; spleen, 7 hr
  Srxn1 (probe set 1419942_PM_at) differential expression: 1.67
spleen; spleen, 100DMF-vs-Veh, 12 h
  genes in differential expression gene list: None
NK cells; NK cells
  Klrb1b (NK1.1) protein expression change, MFI difference compared to MMF 12 hr or vehicle control: differentially expressed; also recorded: Significant
  Klrc1 (Nkg2a) protein expression change, MFI difference compared to MMF 12 hr or vehicle control: differentially expressed; also recorded: Significant
  Klrd1 (CD94) protein expression change, MFI difference compared to MMF 12 hr or vehicle control: differentially expressed
  Klrk1 (NKG2d) protein expression change, MFI difference compared to MMF 12 hr or vehicle control: differentially expressed; also recorded: Significant
  Ncr1 (NKp46) protein expression change, MFI difference compared to MMF 12 hr or vehicle control: Not significant
NK cells; naïve mice
  Effects on NK cells in the spleen: exerts effects on NK cells in the spleen

## COC(=O)/C=C/C(=O)O [MMF, monomethyl fumarate]
spleen; [1]
  Number of differentially expressed genes identified: Spleen: 12
spleen; [2]
  Number of differentially expressed genes identified: Spleen: 2
spleen; [3]
  Number of differentially expressed genes identified: Spleen: 0
spleen; SPLEEN, 100MMF-vs-Veh, 2 h
  FC Pdia4 (protein disulfide isomerase associated 4): −1.59
  FC Aox1 (aldehyde oxidase 1): 2.35
  FC Osgin1 (oxidative stress induced growth inhibitor 1): 1.83
  FC Kirrel (kin of IRRE like (Drosophila)): −1.65
  FC 9130221J17Rik (RIKEN cDNA 9130221J17 gene): 1.55
spleen; SPLEEN, 100MMF-vs-Veh, 2 h, probe 1419942_PM_at
  FC Srxn1 (sulfiredoxin 1 homolog (S. cerevisiae)): 2.02
spleen; SPLEEN, 100MMF-vs-Veh, 2 h, probe 1421529_PM_a_at
  FC Txnrd1 (thioredoxin reductase 1): 1.53
spleen; SPLEEN, 100MMF-vs-Veh, 2 h, probe 1424486_PM_a_at
  FC Txnrd1 (thioredoxin reductase 1): 2.14
spleen; SPLEEN, 100MMF-vs-Veh, 2 h, probe 1426875_PM_s_at
  FC Srxn1 (sulfiredoxin 1 homolog (S. cerevisiae)): 1.92
spleen; SPLEEN, 100MMF-vs-Veh, 2 h, probe 1426937_PM_at
  FC 6330406I15Rik (RIKEN cDNA 6330406I15 gene): −1.58
spleen; SPLEEN, 100MMF-vs-Veh, 2 h, probe 1434951_PM_at
  FC Armc8 (armadillo repeat containing 8): −1.54
spleen; SPLEEN, 100MMF-vs-Veh, 2 h, probe 1446490_PM_at
  FC probe 1446490_PM_at (no gene named): −1.76
spleen; SPLEEN, 100MMF-vs-Veh, 7 h, probe 1419942_PM_at
  FC Srxn1 (sulfiredoxin 1 homolog (S. cerevisiae)): 1.87
spleen; SPLEEN, 100MMF-vs-Veh, 7 h, probe 1426875_PM_s_at
  FC Srxn1 (sulfiredoxin 1 homolog (S. cerevisiae)): 1.69
spleen
  Number of genes, DMF Only / MMF Only: 3
spleen; spleen, 2 hr
  Aox1 (probe set 1419435_PM_at) differential expression: 2.35
  Armc8 (probe set 1434951_PM_at) differential expression: −1.54
  Kirrel (probe set 1434797_PM_at) differential expression: −1.65
  Osgin1 (probe set 1424022_PM_at) differential expression: 1.83
  Paip1 (probe set 1425521_PM_at) differential expression: −1.56
  Pdia4 (probe set 1416497_PM_at) differential expression: −1.59
  Rod1 (probe set 1424084_PM_at) differential expression: −1.54
  Srxn1 (probe set 1419942_PM_at) differential expression: 2.02
  Txnrd1 (probe set 1424486_PM_a_at) differential expression: 2.14
spleen; spleen, 7 hr
  Srxn1 (probe set 1419942_PM_at) differential expression: 1.87
spleen; spleen, 2 hr after single 100 mg/kg oral dose
  Srxn1 mRNA fold change vs vehicle: 1.87
